The conditions of data set [1]: cited from earlier work.
Data set [2] in a line: EC17 dose finding and CRS assessment in tumor-free mice. The format is in vivo, NSG mice. The text has this:
(§1) For MDA-MB-231 studies, mice received a high dose (~10 million) of a “clinical facsimile” of E2-CAR-T cells (~39% EGFRt+) with a low differentiation profile (FIG. 9). Two days later, 3 different treatment regimens of EC17 were started at an average tumor size of −293±39 mm^3 (FIG. 12). The EC17 dosing was given once-a-week (SIW) at 500 nmol/kg on Mondays, or as escalating doses of 5, 50 or 100, and 500 or 1000 nmol/kg (i.e., 5/50/500 or 5/100/1000) on Monday, Thursday, and Monday with a 6-day break in-between cycles. Control mice were left untreated (received CAR-T cells but no EC17). For comparison, a cohort of tumor-free littermates also received the same number of CAR-T cells without or with EC17 SIW at 500 nmol/kg.
(§2) The initial EC17 dose finding studies were conducted in MDA-MB-231 tumor bearing mice as shown by the schematic diagram of the experimental layout (FIG. 12, panel A). NSG mice without or with MDA-MB-231 tumors (~211±65 mm3) were engrafted on day 0 with −10 million of a “clinical facsimile” batch of E2-CAR-T cells (−39% EGFRt+, 51:49 CD4/CD8). This batch of CAR-T cells consisted of mostly TSCM and TCM phenotypes (see FIG. 9). Two days after the CAR-T cell injection, one cohort of tumor-bearing mice were left untreated while three cohorts were treated with different regimens of EC17, including single injection per week (SIW) at 500 nmol/kg, or as escalating EC17 dose levels of 5/50/500 (Escalation-1) or 5/100/1000 nmol/kg (Escalation-2) given on a Monday/Thursday/Monday schedule with 1-week drug-free intervals. For comparison, two tumor-free cohorts were either untreated or treated with EC17 SIW at 500 nmol/kg.

Data set [3] relates to tumor cell surface FR. The settings on record: cited from earlier work.
In data set [4] the test system is MDA-MB-231 tumors. Nature of the data set: EC17 dose finding and CRS assessment in MDA-MB-231 tumor-bearing mice. The settings on record: for human IFNγ in mouse plasma, fold over CAR-T cells only: all EC17 treated tumor cohorts. It is filed as in vivo. How it is done: All animal care and use were performed according to NIH guidelines and in compliance with protocols approved by the Purdue University Animal Use and Care Committee. Female 4 to 5-week-old NOD/SCID gamma (NSG™) mice (stock number:005557) were purchased from The Jackson Faboratory (Bar Harbor, ME). Unless specifically indicated, all animals were maintained on a FA-deficient diet (TestDiet, St. Fouis, MO) upon arrival and throughout the study. To establish subcutaneous xenografts, MDA-MB-231 and HOS-FRα were implanted in the right flank region at 2.5×10^6 and 1×10^6 cells per animal, respectively. For intravenous xenografts, THP1-FRβ) cells were inoculated at 5×10^6 cells per animal. Subcutaneous tumors were measured 2-3 times per week with a caliper and calculated using the ellipsoidal formula (length×width2)/2. […] All animal doses (CAR-T cells, EC17, sodium fluorescein) were given intravenously.
In a therapeutic setting, EC17 CAM can be given before or after CAR-T cell injection. As described herein, the first dose of EC17 was administered 2-3.5 days after CAR-T cells to allow for an observation period of human T cells in tumor-bearing mice. Two batches of unsorted E2-CAR-T cells (23% or 39% EGFRt+, 1:1 CD4/CD8) were used for in vivo studies. On the day of infusion for each experiment (day 0), frozen CAR-T cells were quickly thawed at 37° C., washed 2× with Dulbecco's IX PBS (pH 7.4) and injected into the tail vein at desired EGFRt+E2-CAR-T cell doses. In addition, a small aliquot of CAR-T cells was analyzed by flow cytometry for CD4 to CD 8 ratio and differentiation status of CAR-T cells. On the first day of EC17 dose, tumor-bearing animals were randomly assigned into groups according to their tumor sizes or the same number of days post intravenous implantation (i.e., THP1-FRβ).
as §1, §2

Data set [5] in a line: water solubility of EC17. It is filed as physicochemical.
The mark [6] stands for this setting: ~10 million CAR-T cells, continued EC17 dosing independent of the regimen.

Bounds are passed on as bounds.

Turning to `NC1=NC2N=CC(CNc3ccc(C(=O)N[C@@H](CCC(=O)NCCNC(=S)Nc4ccc(-c5c6ccc(=O)cc-6oc6cc(O)ccc56)c(C(=O)O)c4)C(=O)O)cc3)=NC2C(=O)N1` (stereo partly drawn) [EC17, FA-(γ)-ethylenediamine-FITC], the clearance from circulation result in data set [1] (0.1 mg/kg intravenous) is on record as “rapid clearance from circulation”. Besides, the “time EC17 fluorescence signal observed at the site of the tumor” value in data set [1] (after administration, latest time-point evaluated) is reported as “up to 5 hours”. Further, the “time to real-time visualization of malignant lesions” value in data set [1] (post EC17 administration) is ≤ 2 h. Moreover, in data set [1] (single 10-minute intravenous infusion of 0.1 mg/kg, plasma), the elimination half-life was 1.45 h. Moreover, the “CAR-T cell expansion by flow cytometry” value in data set [2] (tumor-free cohorts) is given as “no CAR-T cell expansion was detected”. The body weight loss result in data set [2] (tumor-free mice, CAR-T cells + two weekly doses of EC17 at 500 nmol/kg) is listed as “no CRS symptoms (grade 0 out of a 0-5 scale) or body weight loss”; in data set [4] (EC17 Escalation-2 regimen 5/100/1000 nmol/kg), “persistent body weight loss”; in data set [4] (setting [6]), “significant body weight losses”. In data set [2] (tumor-free, CAR-T cells plus EC17, days 11 and 12), the IFNγ in plasma entry is “low levels of IFNγ were detected”. For the same compound, in data set [3], the “affinity for tumor cell surface FR” value is listed as “sub-nanomolar”. The compound further displayed a cures in data set [4] (EC17-treated cohorts) of 100%. Also, the “onset of CRS and body weight loss” value in data set [4] (EC17 SIW at 500 nmol/kg) is “earliest onset of CRS and body weight loss”. Besides, the “human IFNγ in mouse plasma, fold over CAR-T cells only” value was ~ 30 × in data set [4] (day 11 (~20 hours after previous EC17 dose)) and ~ 10 × in data set [4] (day 12 (~42 hours after previous EC17 dose)). The “EC17 dose triggering severe CRS (grade≥3)” value in data set [4] (in combination with a high CAR-T cell dose) is listed as ≥ 500 nmol/kg. The “persistence of CAR-T cells in mouse blood” value in data set [4] (tumor-bearing animals, last measurement) is on record as “up to 54 days”. For the same compound, the “CRS symptoms (grades)” value in data set [4] (setting [6]) is reported as 2-3. The water solubility result in data set [5] was “good water solubility”.

The record behind these values is patent US20260263517A1, “THERAPEUTIC METHODS WITH TARGET-LINKED SMALL MOLECULES AND ANTI-TARGET CAR T CELLS” (Seattle Children's Hospital (dba Seattle Children's …, priority 2022, published 2026).
